# Legend:
# HCT116 cells = assay: Cell proliferation assay (CellTiter-Glo), HCT116; format: cell-based; settings: Homo sapiens, 120 h, HCT-116, 5 days incubation
# Protocol: (§1) SW48 cells were plated at a density of 1,500 cells/well, and LoVo, HCT116, and SW620 cells were plated at a density of 800 cells/well in a 96-well cell culture plate, and cultured in a 37°C incubator overnight. The test compounds, which were gradient-diluted with DMSO, were added, and after incubation for 5 days, cell viability was detected using a CellTiter-Glo kit. The CellTiter-Glo reagent was equilibrated to room temperature, and an appropriate amount was added to the cell plate, followed by shaking at room temperature for 12 min. The luminescence signal was detected using a microplate reader.
# (§2) The luminescence signal values of the DMSO-treated wells and cell-free wells were used as negative and positive controls, respectively, to calculate the inhibition rate of compound on cell proliferation. The concentration-inhibition curve was fitted using the "log(inhibitor) vs. normalized response -- Variable slope" equation in GraphPad Prism 8 software to obtain the IC50. [formula]
# LoVo = assay: Cell proliferation assay (CellTiter-Glo), LoVo; format: cell-based; settings: Homo sapiens, 120 h, 5 days incubation
# Protocol: as §1, §2
compound,measurement,setting,value
CCc1c(N2CCN(C(=O)c3ncnc(C)c3O)CC2)c(=O)c2nn(C3=CCOCC3)nc2n1CC(=O)Nc1ccc(C(F)(F)F)cc1Cl [Example 4],IC50,HCT116 cells,48 nM
same,IC50,LoVo,105 nM

# — EP4692088A1, “COMPOUND ACTING AS WRN HELICASE INHIBITOR” (SHANGHAI JEYOU PHARMACEUTICAL CO., LTD., priority 2023, dated 2024)
